Consider five molecules from ChEMBL document CHEMBL3706496, “Therapeutic Drugs” (1999).

The structures appear in SMILES notation.

Assay type in all cases: ADME, organism-based
Data set [1] can be described thus: Percentage of administered dose recovered as dicarboxylic acid derivative of mitoxantrone in urine within 48 h of drug administration. The note with it: human, in vivo.
The nature of data set [2]: Percentage of administered dose recovered as monocarboxylic acid derivative of mitoxantrone in urine within 48 h of drug administration. The arrangement: dosed compound id 2.58283e+06, dosed compound name Mitoxantrone. The note with it: human, in vivo.
Data set [3] is described as follows: Percentage of administered dose recovered as idarubicinol in urine after oral administration. Set-up: dosed compound id 2.58283e+06, dosed compound name Idarubicin, route oral. The note with it: human, in vivo.
A short description of data set [4]: Percentage of administered dose recovered as idarubicinol in urine after intravenous administration. The arrangement: dosed compound id 2.58283e+06, dosed compound name Idarubicin, route intravenous. To be noted: human, in vivo.
The nature of data set [5]: Percentage of administered dose recovered as unchanged drug in urine within 48 h of drug administration. The note with it: human, read-out: Compound recovery. Set-up: dosed compound id 2.58283e+06, dosed compound name Mitoxantrone.
Data set [6] can be described thus: Percentage of administered dose recovered as unchanged drug in urine after intravenous administration. To be noted: human, read-out: Compound recovery. Set-up: dosed compound id 2.58283e+06, dosed compound name Idarubicin, route intravenous.
A short description of data set [7]: Percentage of administered dose recovered as unchanged drug in urine after oral administration. To be noted: human, read-out: Compound recovery. Set-up: dosed compound id 2.58283e+06, dosed compound name Idarubicin, route oral.

The molecule `O=C(O)CNCCNc1ccc(NCCNCC(=O)O)c2c1C(=O)c1c(O)ccc(O)c1C2=O` gave a Compound recovery in data set [1] of 0.3%.
In the case of `O=C(O)CNCCNc1ccc(NCCNCCO)c2c1C(=O)c1c(O)ccc(O)c1C2=O`, the Compound recovery in data set [2] is 0.5%.
On to `CC(O)[C@]1(O)Cc2c(O)c3c(c(O)c2[C@@H](O[C@H]2C[C@H](N)[C@H](O)[C@H](C)O2)C1)C(=O)c1ccccc1C3=O` (some centres not stated), for which the Compound recovery in data set [3] amounted to 5%; in data set [4], 15%.
Take `O=C1c2c(O)ccc(O)c2C(=O)c2c(NCCNCCO)ccc(NCCNCCO)c21` [MITOXANTRONE]: the dose excreted at 48 h in data set [5] worked out at 4.4%.
For `CC(=O)[C@]1(O)Cc2c(O)c3c(c(O)c2[C@@H](O[C@H]2C[C@H](N)[C@H](O)[C@H](C)O2)C1)C(=O)c1ccccc1C3=O` [IDARUBICIN], the dose excreted in data set [6] stood at 2%; in data set [7] it was 0.6%.
